Results reported in PubChem BioAssay (NCI).
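Results reflect a 48-hour exposure of cells in 96-well plates to compound at five concentrations. TGI marks complete inhibition of growth.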

How the values were obtained:
Assay in all cases: growth of human tumour cells (NCI), 48 h
SK-MEL-5 melanoma = test system: SK-MEL-5 melanoma
UACC-257 melanoma = test system: UACC-257 melanoma
SR leukemia = test system: SR leukemia
SW-620 colon = test system: SW-620 colon
CCRF-CEM leukemia = test system: CCRF-CEM leukemia
HCC-2998 colon = test system: HCC-2998 colon
HS 578T breast = test system: HS 578T breast
K-562 leukemia = test system: K-562 leukemia
786-0 renal = test system: 786-0 renal
OVCAR-8 ovarian = test system: OVCAR-8 ovarian

SMILES | TGI (SK-MEL-5 melanoma) [µM] | TGI (UACC-257 melanoma) [µM] | TGI (SR leukemia) [µM] | TGI (SW-620 colon) [µM] | TGI (CCRF-CEM leukemia) [µM] | TGI (HCC-2998 colon) [µM] | TGI (HS 578T breast) [µM] | TGI (K-562 leukemia) [µM] | TGI (786-0 renal) [µM] | TGI (OVCAR-8 ovarian) [µM]
CCn1c(-c2ccc(C)cc2)cs/c1=N\C(P(=O)(O)O)P(=O)(O)O | > 100 | > 100 | > 100 | > 100 | > 100 | > 100 | > 100 | > 100 | > 100 | > 100
COc1ccc(C2SCC(=O)N2NC(=O)C(C)Oc2ccccc2Cl)cc1 (stereo not given) | 65.6 | > 100 | 58.1 | > 100 | 79.6 | > 100 | > 100 | > 100 | > 100 | > 100
COc1cc2c(cc1OC)C(Cc1ccccc1CCCl)=NCC2 | 54.3 | > 100 | > 100 | > 100 | > 100 | > 100 | > 100 | > 100 | > 100 | > 100
O=C(CN1CCOCC1)CC(O)(C(F)(F)F)C(F)(F)F | > 100 | > 100 | > 100 | > 100 | > 100 | > 100 | > 100 | > 100 | > 100 | > 100
